Measurements taken from ChEMBL document CHEMBL5338712, “Influence of chain length on the anticancer activity of the antimicrobial peptide CAMEL with fatty acid modification” (Eur J Med Chem, 2022).
In brackets after ≈: the same amount, converted by molar mass. Activity calls are given as the source filed them. The calls are words filed in the database; no cut-off is given here. Where a SMILES comes first, the peptide text is derived from it. The star is where a group is joined. Palmitoyl = CCCCCCCCCCCCCCCC(=O)*; Lauroyl = CCCCCCCCCCCC(=O)*; Octanoyl = CCCCCCCC(=O)*

Experiments:
B16-F10 [1] = experiment: Cytotoxicity against mouse B16-F10 cells assessed as reduction in cell viability measured after 1 hrs by MTT assay; format: functional, cell-based; conditions: dose 1.25-20 µM
B16-F10 [2] = experiment: Cytotoxicity against mouse B16-F10 cells assessed as reduction in cell viability at 1.25 to 20 uM measured after 24 hrs by MTT assay; format: functional, cell-based; conditions: dose 1.25-20 µM
Escherichia coli = experiment: Antibacterial activity against Escherichia coli ATCC 25922 assessed as reduction in bacterial growth measured for 18 hrs by serial dilution method; format: functional
Staphylococcus aureus = experiment: Antibacterial activity against Staphylococcus aureus ATCC […] assessed as reduction in bacterial growth measured for 18 hrs by serial dilution method; format: functional
[3] = Self-assembly behavior of compound in saline solution assessed as critical micelle concentration by spectrophotometer analysis; format: physicochemical; conditions: buffer
trypsin = trypsin (Homo sapiens, UniProt P07477+P07478+P35030); experiment: Stability of compound assessed as trypsin (unknown origin)-mediated compound degradation measured upto 6 hrs by RP-HPLC analysis; format: ADME, protein assay; conditions: trypsin (enzyme solution), read-out: Drug degradation
B16-F10 [4] = experiment: Membrano-lytic activity in mouse B16-F10 cell membrane measured after 1 hr by LDH leakage assay; format: cell-based; conditions: dose 1.25-20 µM
B16-F10 [5] = experiment: Membrano-lytic activity in mouse B16-F10 cell membrane at 1.25 to 20 uM measured after 4 hr by LDH leakage assay; format: cell-based; conditions: dose 1.25-20 µM
B16-F10 [6] = experiment: Membrano-lytic activity in mouse B16-F10 cell membrane at 20 uM measured at 1 hr by LDH leakage assay; format: cell-based
B16-F10 [7] = experiment: Induction of necrotic cell death in mouse B16-F10 at 10 uM measured after 1 to 24 hrs; format: functional, cell-based; conditions: time 1-24 hrs
B16-F10 [8] = experiment: Induction of morphological changes in mouse B16-F10 cells assessed as cell rounding at 20 uM incubated for 30 mins by microscopic analysis; format: functional, cell-based
B16-F10 [9] = experiment: Induction of morphological changes in mouse B16-F10 cells assessed as cell swelling at 20 uM incubated for 30 mins by microscopic analysis; format: functional, cell-based
B16-F10 [10] = experiment: Induction of morphological changes in mouse B16-F10 cells assessed as cell bursting at 20 uM incubated for 30 mins by microscopic analysis; format: functional, cell-based
B16-F10 [11] = experiment: Induction of cell membrane disruption in mouse B16-F10 cells at 20 uM measured for 30 mins by PI staining based microplate reader assay
B16-F10 [12] = experiment: Induction of cell membrane disruption in mouse B16-F10 cells at 20 uM by PI staining based microplate reader assay; conditions: time 30.0 min, TDE = time-dependent effect
B16-F10 [13] = experiment: Induction of mitochondrial membrane potential loss in mouse B16-F10 cells assessed as decrease in fluorescence intensity at 10 uM measured at 0.5 to 4 hrs by flow cytometry analysis; format: functional, cell-based; conditions: time 0.5-4 hrs
B16-F10 [14] = experiment: Induction of mitochondrial membrane potential loss in mouse B16-F10 cells at 10 uM by flow cytometry analysis; format: functional, cell-based; conditions: time 0.5-4 hrs, TDE = time-dependent effect
B16-F10 [15] = experiment: Induction of ROS production in mouse B16-F10 cells at 10 uM measured for 0.5 to 4 hrs by MitoSOX red dye based microplate reader analysis; format: functional, cell-based; conditions: time 0.5-4 hrs
B16-F10 [16] = experiment: Induction of ROS production in mouse B16-F10 cells at 10 uM measured for 0.5 to 4 hrs by DCFH-DA dye based microplate reader analysis; format: functional, cell-based; conditions: time 0.5-4 hrs
B16-F10 [17] = experiment: Antiproliferative activity against mouse B16-F10 cells assessed as inhibition of cell viability by measuring ATP level at 10 uM measured for 4 to 24 hrs; format: functional, cell-based; conditions: time 4-24 hrs
B16-F10 [18] = experiment: Induction of apoptosis in mouse B16-F10 cells assessed as activation of caspase-3 incubated for 24 hrs by microplate reader analysis; format: functional, cell-based
B16-F10 [19] = experiment: Cytotoxicity against mouse B16-F10 cells assessed as induction of cell death measured for 4 to 24 hrs by MTT assay; format: functional, cell-based; conditions: time 4-24 hrs
B16-F10 [20] = experiment: Induction of necroptosis in mouse B16-F10 cells assessed as increase in ROS level; format: functional, cell-based
B16-F10 [21] = experiment: Induction of apoptosis in mouse B16-F10 cells assessed as decrease in ATP level; format: functional, cell-based
B16-F10 [22] = experiment: Induction of necroptosis in mouse B16-F10 cells assessed as cell death at 5 to 20 uM measured for 4 to 24 hrs in presence of Nec-1; format: functional, cell-based; conditions: dose 5-20 µM, time 4-24 hrs
B16-F10 [23] = experiment: Induction of cell cycle arrest in mouse B16-F10 cells assessed as accumulation at G0/G1 phase at 10 uM and measured after 24 hrs PI staining based by flow cytometry; format: functional
B16-F10 [24] = experiment: Antitumor activity against mouse B16-F10 cells implanted in intratumorally dosed C57BL/6 mouse assessed as reduction in tumor volume administered for 3 days by vernier caliper method; format: functional, organism-based; conditions: time 3.0 day
[25] = Toxicity in C57BL/6 […] mouse implanted with mouse B16-F10 cells assessed as animal death administered intratumorally; format: cell-based; conditions: in vivo, other, route it(Intratumoral)
B16-F10 [26] = experiment: Membrano-lytic activity in mouse B16-F10 cell membrane at 1.25 to 20 uM measured after 1 hr by LDH leakage assay; format: cell-based; conditions: dose 1.25-20 µM
B16-F10 [27] = experiment: Cytotoxicity against mouse B16-F10 cells assessed as reduction in cell viability at 1.25 to 20 uM by MTT assay; format: functional, cell-based; conditions: dose 1.25-20 µM, time 1-72 hrs, TDE = time-dependent effect
B16-F10 [28] = experiment: Cytotoxicity against mouse B16-F10 cells assessed as reduction in cell viability at 1.25 to 20 uM measured after 72 hrs by MTT assay; format: functional, cell-based; conditions: dose 1.25-20 µM
B16-F10 [29] = experiment: Membrano-lytic activity in mouse B16-F10 cell membrane at 20 uM by LDH leakage assay; format: cell-based; conditions: time 0.5-4 hrs, TDE = time-dependent effect
B16-F10 [30] = experiment: Disruption of membrane integrity in mouse B16-F10 cells at 10 uM measured at 4 to 24 hrs by propidium iodide staining based laser scanning microscopic analysis; format: cell-based; conditions: time 4-24 hrs
B16-F10 [31] = experiment: Membrano-lytic activity in mouse B16-F10 cell membrane at 20 uM measured after 0.5 hr by LDH leakage assay; format: cell-based
B16-F10 [32] = experiment: Membrano-lytic activity in mouse B16-F10 cell membrane at 20 uM measured at 0.5 to 4 hrs by LDH leakage assay; format: cell-based; conditions: time 0.5-4 hrs
B16-F10 [33] = experiment: Disruption of membrane integrity in mouse B16-F10 cells at 10 uM measured after 1 hr by propidium iodide staining based laser scanning microscopic analysis; format: cell-based
B16-F10 [34] = experiment: Induction of mitochondrial membrane potential loss in mouse B16-F10 cells assessed as decrease in fluorescence intensity at 10 uM measured at 4 hrs by flow cytometry analysis; format: functional, cell-based

Row | Compound | Activity (B16-F10 [1]) | Activity (B16-F10 [2]) | MIC (Escherichia coli) | MIC (Staphylococcus aureus) | metabolised at 6 h (trypsin) | Activity (B16-F10 [4]) | Activity (B16-F10 [7]) | Activity (B16-F10 [8]) | Activity (B16-F10 [9]) | Activity (B16-F10 [10]) | Activity (B16-F10 [11]) | Activity (B16-F10 [13]) | Activity (B16-F10 [15]) | Activity (B16-F10 [16]) | Activity (B16-F10 [17]) | Activity (B16-F10 [18]) | Activity (B16-F10 [19]) | Activity (B16-F10 [20]) | Activity (B16-F10 [21]) | Activity (B16-F10 [22]) | other results
1 | CCCCCCCCCCCC(=O)N[C@@H](CCCCN)C(=O)N[C@@H](Cc1c[nH]c2ccccc12)C(=O)N[C@@H](CCCCN)C(=O)N[C@@H](CC(C)C)C(=O)N[C@@H](Cc1ccccc1)C(=O)N[C@@H](CCCCN)C(=O)N[C@@H](CCCCN)C(=O)N[C@H](C(=O)NCC(=O)N[C@@H](C)C(=O)N[C@H](C(=O)N[C@@H](CC(C)C)C(=O)N[C@@H](CCCCN)C(=O)N[C@H](C(=O)N[C@@H](CC(C)C)C(N)=O)C(C)C)C(C)C)[C@@H](C)CC (Lauroyl-KWKLFKKIGAVLKVL-NH2) | Dose-Dependent Effect | Active | 8 µM (≈ 15.6 µg/mL) | 8 µM (≈ 15.6 µg/mL) | 18.9% | Dose-Dependent Effect | Active | Active | Active | Active | Active | Active | Active | Active | Active | inactive | inactive | Active | inactive | Active | CMC [3]: 7.16 µM; Activity (B16-F10 [5]): Active; Activity (B16-F10 [6]): Active; Activity (B16-F10 [12]): Tde; Activity (B16-F10 [14]): Tde; Activity (B16-F10 [23]): inactive; Activity (B16-F10 [24]): Active; Activity [25]: Non-Toxic
2 | CCCCCCCC(=O)N[C@@H](CCCCN)C(=O)N[C@@H](Cc1c[nH]c2ccccc12)C(=O)N[C@@H](CCCCN)C(=O)N[C@@H](CC(C)C)C(=O)N[C@@H](Cc1ccccc1)C(=O)N[C@@H](CCCCN)C(=O)N[C@@H](CCCCN)C(=O)N[C@H](C(=O)NCC(=O)N[C@@H](C)C(=O)N[C@H](C(=O)N[C@@H](CC(C)C)C(=O)N[C@@H](CCCCN)C(=O)N[C@H](C(=O)N[C@@H](CC(C)C)C(N)=O)C(C)C)C(C)C)[C@@H](C)CC (Octanoyl-KWKLFKKIGAVLKVL-NH2) | Dose-Dependent Effect | Active | 8 µM (≈ 15.2 µg/mL) | 4 µM (≈ 7.59 µg/mL) | 70.2% | Dose-Dependent Effect |  |  |  |  |  |  |  |  |  |  |  |  |  |  | Activity (B16-F10 [26]): Active
3 | CCCCCCCCCCCCCCCC(=O)N[C@@H](CCCCN)C(=O)N[C@@H](Cc1c[nH]c2ccccc12)C(=O)N[C@@H](CCCCN)C(=O)N[C@@H](CC(C)C)C(=O)N[C@@H](Cc1ccccc1)C(=O)N[C@@H](CCCCN)C(=O)N[C@@H](CCCCN)C(=O)N[C@H](C(=O)NCC(=O)N[C@@H](C)C(=O)N[C@H](C(=O)N[C@@H](CC(C)C)C(=O)N[C@@H](CCCCN)C(=O)N[C@H](C(=O)N[C@@H](CC(C)C)C(N)=O)C(C)C)C(C)C)[C@@H](C)CC (Palmitoyl-KWKLFKKIGAVLKVL-NH2) | Dose-Dependent Effect | Active | > 128 µM | > 128 µM | 8.7% | Dose-Dependent Effect | Active | Active | Active | Active | Active | Active | Active | Active | Active | inactive | inactive | Active | inactive | Active | Activity (B16-F10 [27]): Tde; Activity (B16-F10 [28]): Active; CMC [3]: 4.95 µM; Activity (B16-F10 [26]): Active; Activity (B16-F10 [29]): Tde; Activity (B16-F10 [30]): Active; Activity (B16-F10 [14]): Tde; Activity (B16-F10 [23]): inactive; Activity (B16-F10 [24]): Active; Activity [25]: Non-Toxic
4 | H-KWKLFKKIGAVLKVL-NH2 | Dose-Dependent Effect | Active | 32 µM | 4 µM | 100% | Dose-Dependent Effect | Active | Active | Active | Active | Active | Active | Active | Active | Active | inactive | inactive | Active | inactive | Active | Activity (B16-F10 [5]): Active; Activity (B16-F10 [31]): Active; Activity (B16-F10 [32]): inactive; Activity (B16-F10 [33]): Active; Activity (B16-F10 [12]): Tde; Activity (B16-F10 [34]): inactive; Activity (B16-F10 [23]): inactive; Activity (B16-F10 [24]): Active; Activity [25]: Non-Toxic
